How the values were obtained:
[1] = tested on: anti cit-β-fibrinogen ACPA; assay: Peptide inhibition assay in ELISA, plates coated with cit-β-fibrinogen; parameters: species or system human; conditions: sera of ACPA-positive RA patients diluted to about 50% binding OD, 2 h preincubation at room temperature
Protocol: (§1) Peptide inhibition assay in ELISA was used to confirm the cross-reactivity of the Cit-ME peptide to the following anti-citrullinated protein antibodies (ACPA): anti citrullinated filaggrin, anti cit-β-fibrinogen, anti cit-collagen and anti cit-vimentin. Sera were obtained from ACPA RA patients and samples with highly positive ACPA levels were selected (≥100 U/ml) using commercial CCP ELISA test (INOVA). ELISA test was performed with each of the citrullinated peptides: cit-filaggrin (HQCHQESTCitGRSRGRCGRSGS) set forth in SEQ ID NO: 3, cit-β-fibrinogen (CitPAPPPISGGGYCitACit) set forth in SEQ ID NO: 2, cit-collagen (ACitGLTGCitPGDAK) set forth in SEQ ID NO: 21 and cit-vimentin (SAVRACitSSVPGVRK) set forth in SEQ ID NO: 22. Sera were diluted in PBS to obtain a reactivity of approximately 50% binding OD under standard assay conditions. Increasing concentrations of Cit-ME peptide were added to the diluted sera and incubated for two hours at room temperature. Specimens were then assayed in ELISA plates coated with each one of the peptides. […] Thus, ACPA have binding specificity to Cit-ME.

anti cit-collagen ACPA = assay: Peptide inhibition assay in ELISA, plates coated with cit-collagen; parameters: species or system human; conditions: sera of ACPA-positive RA patients diluted to about 50% binding OD, 2 h preincubation at room temperature
Protocol: as §1

TNF-α = TNF-α gene expression in mononuclear cells derived from synovial fluid of RA patients, real-time PCR; format: cell-based, human; conditions: 24 h, compared to the non-citrullinated peptides
Protocol: (§2) To assess the effect of the Cit-ME peptide (SEQ ID NO: 1) on inflammatory related genes expression, peripheral blood mononuclear cells derived from synovial fluid rheumatoid arthritis patients were incubated with the Cit-ME multi-epitope citrullinated peptide for 24 h. The effect of the peptide on gene expression was compared also to the effect of infliximab, a TNF-α blocker, which is an antirheumatic drug that acts as an anti-inflammatory compound. […] Results were determined by real-time PCR.

IFN-γ = IFN-γ gene expression in mononuclear cells derived from synovial fluid of RA patients, real-time PCR; format: cell-based, human; conditions: 24 h, compared to the non-citrullinated peptides
Protocol: as §2

T cells = T cells apoptosis in PBMC of RA patients, annexin V/PI FACS; format: cell-based, human; conditions: 24 hours, gated on PI negative cells, compared with matched non-citrullinated peptide
Protocol: To assess the ability of the citrullinated peptides to affect T cells apoptosis, peripheral blood mononuclear cells of rheumatoid arthritis patients were cultured in the presence of citrullinated, non-citrullinated peptides and Infliximab for 24 hours. Cells were double-stained for annexin V-fluorescein isothiocyanate (FITC) and PI-PE (apoptosis/necrosis markers) and analyzed by FACS. The results in FIG. 8 are presented after gating for PI negative cells (live cells). The β-Fib-Cit and Cit-ME (FIGS. 8A and 8B, respectively) induced T cells apoptosis (by 20% and 18%, respectively) as compared with the non-citrullinated peptides Non-Cit-β-Fib (FIG. 8D) and Non-Cit-ME (FIG. 8E). Infliximab induced apoptosis by 28% (FIG. 8C) as compared with the medium control (FIG. 8F).

AIA rats [2] = assay: Adjuvant-Induced Arthritis (AIA) in rats, paw swelling and clinical signs; format: in vivo, rat
AIA rats [3] = assay: Histological signs of arthritis in ankle joints of AIA rats; format: in vivo, rat; conditions: day 28 post disease induction, H&E, untreated 1.75±0.41
Protocol: To evaluate the histological signs of arthritis, rats were sacrificed and ankle joints were collected on day 28 post disease induction. The joints were fixed immediately for 24 hours in 4% paraformaldehyde, then decalcified in rapid bone decalcifier (RDO; Apex Engineering, Plainfield, Ill., USA) for 6 hours at room temperature, and further fixed in 4% paraformaldehyde before embedding in paraffin. Sections (5 μm thick) were rehydrated in a graded ethanol series and stained with haematoxylin & eosin (H&E). FIGS. 11A to 11C show representative H&E stained joint tissue sections (magnification ×100). Arrowheads denote the infiltrated zones, scale bar=200 μm. The specimens were scored for severity of inflammation in the synovium, pannus formation, cartilage, and bone erosion. A close correlation between the clinical signs and the histopathological findings was found.

[4] = tested on: CD4+CD25+FoxP3+ regulatory T cells; assay: Regulatory T cells in splenocytes of AIA rats, FACS; format: in vivo, rat
Source text: Splenocytes from rats at day 28 post disease induction were stained with anti-CD4-FITC, anti-CD25-APC, and anti-Foxp3-PE (eBioscience) mAbs and analyzed by FACS. In representative outputs as shown in FIG. 12A-C, Regulatory T cells subpopulation was higher in Cit-ME treated rats (9%), compared to 7% and 6.2% in Non-Cit-ME peptide and untreated rats, respectively. Statistical analysis of the results is shown in FIG. 12D (Cit-ME n=9, Non-Cit-ME n=11, untreated rats n=7).

CD4+IL-17+ T cells = CD4+IL-17+ T cells in the spleen of AIA rats, FACS; format: in vivo, rat
Protocol: Distribution of pathogenic CD4^+IL-17^+ T cells in the spleen of experimental rats was assessed by FACS.

IL-17 = IL-17 mRNA expression in the spleen of AIA rats, RT-PCR; format: in vivo, rat; conditions: spleens of AIA rats, 8 rats per treatment, compared to control
Protocol: To validate the effect of the peptides on CD4^+IL-17^+ populations as determined by FACS, the expression of IL-17 in the spleen was evaluated using RT-PCR. cDNA was extracted from the spleens of 8 rats per treatment (including control), and gene expression of IL-17 was assessed using the following RT-PCR primers: forward 5′-TGGCGGTTCTCCTTCAGTC-3′ (SEQ ID NO: 17) and reverse 5′-[…]-3′ (SEQ ID NO: 18). […] Thus, the RT-PCR data was in line with the FACS analyses.

FAS receptor = assay: FAS mRNA expression in splenocytes of AIA rats, RT-PCR; format: in vivo, rat; conditions: compared to Non-Cit-ME and control groups
Protocol: To examine whether Cit-ME affects apoptosis through the FAS receptor pathway, FAS mRNA expression in splenocytes was evaluated (FIG. 14F), using the following RT-PCR primers: forward 5′-TGGCTGTCCTGCCTCTGGT-3′ (SEQ ID NO: 19) and reverse 5′-[…]-3′ (SEQ ID NO: 20).

- amount of peptide sufficient to impair binding of specific ACPA to cit-β-fibrinogen [1]: 10 to 200 µg
- amount of peptide sufficient to impair binding of specific ACPA to cit-collagen (anti cit-collagen ACPA): 10 to 200 µg
Substance: VCitLCitSSVESTCitGRSCitPAPPPACitGLT [Cit-ME]
- expression of TNF-α (TNF-α): down-regulated
- expression of IFN-γ (IFN-γ): down-regulated
- induction of T cells apoptosis (T cells): 18%
- mean paw swelling / arthritis signs (AIA rats [2]; AIA Lewis female rats, 10 subcutaneous injections of 300 μg/rat on alternate days from day 7, up to day 21 post disease induction): significant reduced mean paw swelling
- maximum value of mean paw diameter (AIA rats [2]; AIA rats, 8 subcutaneous injections of 300 μg per rat on alternate days from day 7, mean±SE, untreated 4.61±0.17 on day 14): 3.81±0.11 mm
- arthritis severity / symptoms at day 27 after disease induction (AIA rats [2]; AIA rats, 10 subcutaneous injections of 300 μg/rat on alternate days, compared with β-Fib-Cit and untreated rats): reduced the arthritis severity
- histological inflammatory score (AIA rats [3]): 0.54±0.2
- percentage of CD4+CD25+FoxP3+ regulatory T cells subset, statistical analysis ([4]; spleens of AIA rats, day 28, untreated 7.17±0.31): 8.13±0.17%
- Regulatory T cells subpopulation, representative outputs ([4]; splenocytes of AIA rats, day 28 post disease induction, untreated 6.2%): 9%
- population of CD4+IL-17+-expressing splenocytes, statistical analysis (CD4+IL-17+ T cells; AIA rats, n=8, untreated 1.14±0.2): 0.68±0.1
- IL-17+ population, representative results (CD4+IL-17+ T cells; spleen of AIA rats, untreated 2%): 0.6%
- mean relative expression level of IL-17 mRNA (IL-17): significant reduction
- mean relative expression level of FAS mRNA (FAS receptor): significantly higher
